The assay concerns the target ATX (human His-tagged) (Homo sapiens (Human), UniProt Q13822). Briefly: Human ATX enzyme inhibition assay (fluorescence quenching, MR121 substrate). The assay is classed as biochemical. The following applies: 30 nM ATX, 1 μM MR121 substrate, 30° C., pH 8.0. The method, then:
Production of Human Full Length ATX, with and without his Tag
Autotaxin (ATX-ENPP2) Cloning:
cDNA was prepared from commercial human hematopoietic cells total RNA and used as template in overlapping PCR to generate a full length human ENPP2 ORF with or without a 3′-6×His tag. These full length inserts were cloned into the pcDNA3.1V5-His TOPO (Invitrogen) vector. The DNA sequences of several single clones were verified. The DNA from a correct full length clone was used to transfect Hek293 cells for verification of protein expression. […] ATX Fermentation: Recombinant protein was produced by large-scale transient transfection in 20 L controlled stirred tank bioreactors (Sartorius). During cell growth and transfection, temperature, stirrer speed, pH and dissolved oxygen concentration were maintained at 37° C., 120 rpm, 7.1 and 30% DO, respectively. […] Expression was analyzed by Western Blot, enzymatic assay and/or analytical IMAC chromatography. After cooling the cell suspension to 4° C. in a flow-through heat exchanger, cell separation and sterile filtration of supernatant was performed by filtration through Zeta Plus 60M02 E16 (Cuno) and Sartopore 2 XLG (Sartorius) filter units. The supernatant was stored at 4° C. prior to purification. ATX Purification: 20 liter of culture supernatant were conditioned for ultrafiltration by adding Brij 35 to a final concentration of 0.02% and by adjusting the pH to 7.0 using 1 M HCl. Then the supernatant was first microfiltered through a 0.2 μm Ultran-Pilot Open Channel PES filter (Whatman) and afterwards concentrated to 1 liter through an Ultran-Pilot Screen Channel PES filter with 30 kDa MWCO (Whatman). Prior to IMAC chromatography, NiSO4 was added to a final concentration of 1 mM. The cleared supernatant was then applied to a HisTrap column (GE Healthcare) previously equilibrated in 50 mM Na2HPO4 pH 7.0, 0.5 M NaCl, 10% glycerol, 0.3% CHAPS, 0.02% NaN3. The column was washed stepwise with the same buffer containing 20 mM, 40 mM and 50 mM imidazole, respectively. The protein was subsequently eluted using a linear gradient to 0.5 M imidazole in 15 column volumes. ATX containing fractions were pooled and concentrated using an Amicon cell equipped with a 30 kDa PES filter membrane. The protein was further purified by size exclusion chromatography on Superdex S-200 prep grade (XK 26/100) (GE Healthcare) in 20 mM BICINE pH 8.5, 0.15 M NaCl, 10% glycerol, 0.3% CHAPS, 0.02% NaN3. […] The protein was stored at −80° C. […] 10 μL of MR121 substrate solution was added (1 μM final concentration), mixed 30 times and then incubated for 15 minutes at 30° C.

`NS(=O)(=O)c1ccc(C(=O)N2C[C@H]3CN(C(=O)c4cnc(OC5CCOCC5)c(C5CC5)c4)C[C@@H]3C2)cc1` [Example 1.02, 4-((3aS,6aS)-5-(5-cyclopropyl-6-(tetrahydro-2H-pyran-4-yloxy)nicotinoyl)octahydropyrrolo[3,4-c]pyrrole-2-carbonyl)benzenesulfonamide] registered an IC50 of 22 nM.
`NS(=O)(=O)c1ccc(C(=O)N2C[C@H]3CN(C(=O)c4cc(OCC5CCOCC5)nc(C5CC5)c4)C[C@@H]3C2)cc1F` [Example 1.04, 4-((3aR,6aR)-5-(2-cyclopropyl-6-((tetrahydro-2H-pyran-4-yl)methoxy)isonicotinoyl)octahydropyrrolo[3,4-c]pyrrole-2-carbonyl)-2-fluorobenzenesulfonamide]: the IC50 is 8 nM.
In turn, `NS(=O)(=O)c1ccc(C(=O)N2C[C@H]3CN(C(=O)c4cc(OCC5CCOCC5)nc(C5CC5)c4)C[C@@H]3C2)cc1Cl` [Example 1.05, 2-chloro-4-((3aR,6aR)-5-(2-cyclopropyl-6-((tetrahydro-2H-pyran-4-yl)methoxy)isonicotinoyl)octahydropyrrolo[3,4-c]pyrrole-2-carbonyl)benzenesulfonamide] gave an IC50 of 6 nM.
Turning to `O=C(c1cc(OCC2CCOCC2)cc(C2CC2)c1)N1C[C@@H]2CN(C(=O)[C@@H]3CCc4[nH]nnc4C3)C[C@H]2C1` [Example 1.16, ((3aS,6aS)-5-(3-cyclopropyl-5-((tetrahydro-2H-pyran-4-yl)methoxy)benzoyl)hexahydropyrrolo[3,4-c]pyrrol-2(1H)-yl)((R)-4,5,6,7-tetrahydro-1H-benzo[d][1,2,3]triazol-5-yl)methanone], the midpoint of inhibition, the IC50, lay at 6 nM.
`O=C(CCc1c[nH]c(=O)s1)N1C[C@H]2CCN(C(=O)c3cc(OCC4CCOCC4)nc(C4CC4)c3)CC[C@H]2C1` [Example 1.22, 5-(3-((3aR,8aS)-6-(2-cyclopropyl-6-((tetrahydro-2H-pyran-4-yl)methoxy)isonicotinoyl)octahydropyrrolo[3,4-d]azepin-2(1H)-yl)-3-oxopropyl)thiazol-2(3H)-one] came in with an IC50 of 14 nM.
With `O=C(c1cc(OCC2CCOCC2)nc(C2CC2)c1)N1C[C@@H]2CN(C(=O)c3ccc4[nH]nnc4c3)C[C@H]2C1` [Example 2.01, ((3aS,6aS)-5-(1H-benzo[d][1,2,3]triazole-5-carbonyl)hexahydropyrrolo[3,4-c]pyrrol-2(1H)-yl)(2-cyclopropyl-6-((tetrahydro-2H-pyran-4-yl)methoxy)pyridin-4-yl)methanone], the IC50 stood at 3 nM.
`O=C(c1ccc(OC2CCOC2)c(C2CC2)c1)N1C[C@@H]2CN(C(=O)[C@@H]3CCc4[nH]nnc4C3)C[C@H]2C1` (stereo partly drawn) [Example 2.02, ((3aS,6aS)-5-(3-cyclopropyl-4-(tetrahydrofuran-3-yloxy)benzoyl)hexahydropyrrolo[3,4-c]pyrrol-2(1H)-yl)((R)-4,5,6,7-tetrahydro-1H-benzo[d][1,2,3]triazol-5-yl)methanone] gave an IC50 of 17 nM.
The result for `O=C(c1ccc(OC2CCOC2)c(C2CC2)c1)N1C[C@@H]2CN(C(=O)c3ccc4[nH]nnc4c3)C[C@H]2C1` (stereo partly drawn) [Example 2.03, ((3aR,6aR)-5-(1H-benzo[d][1,2,3]triazole-5-carbonyl)hexahydropyrrolo[3,4-c]pyrrol-2(1H)-yl)(3-cyclopropyl-4-(tetrahydrofuran-3-yloxy)phenyl)methanone] reads 10 nM; that for `O=C(c1cnc(NC2CCOCC2)c(C2CC2)c1)N1C[C@@H]2CN(C(=O)c3ccc4[nH]nnc4c3)C[C@H]2C1` [Example 2.04, ((3aS,6aS)-5-(1H-benzo[d][1,2,3]triazole-5-carbonyl)hexahydropyrrolo[3,4-c]pyrrol-2(1H)-yl)(5-cyclopropyl-6-(tetrahydro-2H-pyran-4-ylamino)pyridin-3-yl)methanone], 40 nM; that for `O=C(c1cnc(OC2CCOC2)c(C2CC2)c1)N1C[C@@H]2CN(C(=O)c3ccc4[nH]nnc4c3)C[C@H]2C1` (stereo partly drawn) [Example 2.05, ((3aS,6aS)-5-(1H-benzo[d][1,2,3]triazole-5-carbonyl)hexahydropyrrolo[3,4-c]pyrrol-2(1H)-yl)(5-cyclopropyl-6-(tetrahydrofuran-3-yloxy)pyridin-3-yl)methanone], 10.5 nM.
For `O=C(c1cnc(OC2CCCOC2)c(C2CC2)c1)N1C[C@@H]2CN(C(=O)c3ccc4[nH]nnc4c3)C[C@H]2C1` (stereo partly drawn) [Example 2.06, ((3aS,6aS)-5-(1H-benzo[d][1,2,3]triazole-5-carbonyl)hexahydropyrrolo[3,4-c]pyrrol-2(1H)-yl)(5-cyclopropyl-6-(tetrahydro-2H-pyran-3-yloxy)pyridin-3-yl)methanone], the IC50 was determined as 4.5 nM.
The result for `O=C(c1cnc(OC2CCOCC2)c(C2CC2)c1)N1C[C@@H]2CN(C(=O)c3ccc4[nH]nnc4c3)C[C@H]2C1` [Example 2.07, ((3aS,6aS)-5-(1H-benzo[d][1,2,3]triazole-5-carbonyl)hexahydropyrrolo[3,4-c]pyrrol-2(1H)-yl)(5-cyclopropyl-6-(tetrahydro-2H-pyran-4-yloxy)pyridin-3-yl)methanone] reads 10 nM; that for `O=C(c1cnc(OC2COC2)c(C(F)(F)F)c1)N1C[C@@H]2CN(C(=O)c3ccc4[nH]nnc4c3)C[C@H]2C1` [Example 2.08, ((3aS,6aS)-5-(1H-benzo[d][1,2,3]triazole-5-carbonyl)hexahydropyrrolo[3,4-c]pyrrol-2(1H)-yl)(6-(oxetan-3-yloxy)-5-(trifluoromethyl)pyridin-3-yl)methanone], 68.5 nM.
In turn, `O=C(c1cnc(OC2CCOCC2)c(C2CC2)c1)N1C[C@@H]2CN(C(=O)[C@@H]3CCc4[nH]nnc4C3)C[C@H]2C1` [Example 2.09, ((3aS,6aS)-5-(5-cyclopropyl-6-(tetrahydro-2H-pyran-4-yloxy)nicotinoyl)hexahydropyrrolo[3,4-c]pyrrol-2(1H)-yl)((R)-4,5,6,7-tetrahydro-1H-benzo[d][1,2,3]triazol-5-yl)methanone] displayed an IC50 of 20 nM.
`O=C(c1cnc(NC2CCOCC2)c(C2CC2)c1)N1C[C@@H]2CN(C(=O)[C@@H]3CCc4[nH]nnc4C3)C[C@H]2C1` [Example 2.11, ((3aS,6aS)-5-(5-cyclopropyl-6-(tetrahydro-2H-pyran-4-ylamino)nicotinoyl)hexahydropyrrolo[3,4-c]pyrrol-2(1H)-yl)((R)-4,5,6,7-tetrahydro-1H-benzo[d][1,2,3]triazol-5-yl)methanone] registered an IC50 of 9 nM.
`O=C(c1cnc(OC2CCCOC2)c(C2CC2)c1)N1C[C@@H]2CN(C(=O)[C@@H]3CCc4[nH]nnc4C3)C[C@H]2C1` (stereo partly drawn) [Example 2.12, ((3aS,6aS)-5-(5-cyclopropyl-6-(tetrahydro-2H-pyran-3-yloxy)nicotinoyl)hexahydropyrrolo[3,4-c]pyrrol-2(1H)-yl)((R)-4,5,6,7-tetrahydro-1H-benzo[d][1,2,3]triazol-5-yl)methanone] registered an IC50 of 11 nM.
The result for `NS(=O)(=O)c1ccc(C(=O)N2C[C@H]3CN(C(=O)c4cnc(OC5CCCOC5)c(C5CC5)c4)C[C@@H]3C2)nc1` (stereo partly drawn) [Example 2.13, 6-((3aR,6aR)-5-(5-cyclopropyl-6-(tetrahydro-2H-pyran-3-yloxy)nicotinoyl)octahydropyrrolo[3,4-c]pyrrole-2-carbonyl)pyridine-3-sulfonamide] reads 10 nM.
The compound `NS(=O)(=O)c1ccc(C(=O)N2C[C@H]3CN(C(=O)c4cc(OCC5CCOCC5)nc(C5CC5)c4)C[C@@H]3C2)nc1` [Example 2.14, 6-((3aR,6aR)-5-(2-cyclopropyl-6-((tetrahydro-2H-pyran-4-yl)methoxy)isonicotinoyl)octahydropyrrolo[3,4-c]pyrrole-2-carbonyl)pyridine-3-sulfonamide] had an IC50 of 6 nM.
Compound `O=C(c1cc(OCC2CCCOC2)nc(C2CC2)c1)N1C[C@@H]2CN(C(=O)c3ccc4[nH]nnc4c3)C[C@H]2C1` (stereo partly drawn) [Example 2.15, ((3aS,6aS)-5-(1H-benzo[d][1,2,3]triazole-5-carbonyl)hexahydropyrrolo[3,4-c]pyrrol-2(1H)-yl)(2-cyclopropyl-6-((tetrahydro-2H-pyran-3-yl)methoxy)pyridin-4-yl)methanone] had an IC50 of 12 nM.

Broadly, the IC50 is the concentration that inhibits the measured activity by half. A higher IC50 goes with a need for much substance.

The record behind these values is patent publication US9802944B2, “Bicyclic compounds as autotaxin (ATX) and lysophosphatidic acid (LPA) production inhibitors” (Hoffmann-La Roche Inc., priority 2014, dated 2017).
